PubChem BioAssay (NCI)
Values joined by “and” are separate entries in the source; they are usually repeats but may differ in a detail not shown here. Equal entries are not always repeated.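 96-well plates; 48 h exposure; 5 concentrations. Endpoints by linear interpolation between flanking doses. Not reached: highest tested concentration assigned. Here, GI50 denotes the concentration required for 50% inhibition of growth. TGI denotes the concentration required for complete inhibition of growth.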

Experiments:
Experiment in all cases: NCI-60 cell line screen, 48 h
OVCAR-5 ovarian = test system: OVCAR-5 ovarian
CCRF-CEM leukemia = test system: CCRF-CEM leukemia
K-562 leukemia = test system: K-562 leukemia
HCC-2998 colon = test system: HCC-2998 colon
HOP-92 NSCLC = test system: HOP-92 NSCLC
T-47D breast = test system: T-47D breast
UACC-62 melanoma = test system: UACC-62 melanoma
DU-145 prostate = test system: DU-145 prostate
NCI-H226 lung = test system: NCI-H226 lung
UACC-257 melanoma = test system: UACC-257 melanoma
MOLT-4 leukemia = test system: MOLT-4 leukemia
ACHN renal = test system: ACHN renal
NCI-H522 lung = test system: NCI-H522 lung
CAKI-1 renal = test system: CAKI-1 renal
HCT-116 colon = test system: HCT-116 colon
SW-620 colon = test system: SW-620 colon
A498 renal = test system: A498 renal
UO-31 renal = test system: UO-31 renal
OVCAR-8 ovarian = test system: OVCAR-8 ovarian
OVCAR-4 ovarian = test system: OVCAR-4 ovarian
HCT-15 colon = test system: HCT-15 colon
HT29 colon = test system: HT29 colon
OVCAR-3 ovarian = test system: OVCAR-3 ovarian
SF-268 CNS = test system: SF-268 CNS
HOP-62 NSCLC = test system: HOP-62 NSCLC
RPMI-8226 leukemia = test system: RPMI-8226 leukemia
SR leukemia = test system: SR leukemia
SF-295 CNS = test system: SF-295 CNS
HS 578T breast = test system: HS 578T breast
PC-3 prostate = test system: PC-3 prostate
SNB-75 CNS = test system: SNB-75 CNS
COLO 205 colon = test system: COLO 205 colon
SNB-19 CNS = test system: SNB-19 CNS
SK-MEL-28 melanoma = test system: SK-MEL-28 melanoma
SK-MEL-5 melanoma = test system: SK-MEL-5 melanoma
MDA-N = test system: MDA-N
SN12C renal = test system: SN12C renal
BT-549 breast = test system: BT-549 breast
IGROV1 ovarian = test system: IGROV1 ovarian
A549 NSCLC = test system: A549 NSCLC
MDA-MB-231 breast = test system: MDA-MB-231 breast
NCI-H23 lung = test system: NCI-H23 lung
SK-OV-3 ovarian = test system: SK-OV-3 ovarian
SF-539 CNS = test system: SF-539 CNS
MALME-3M melanoma = test system: MALME-3M melanoma
LOX IMVI melanoma = test system: LOX IMVI melanoma
MCF7 breast = test system: MCF7 breast
RXF 393 renal = test system: RXF 393 renal
NCI/ADR-RES ovarian = test system: NCI/ADR-RES ovarian
U251 CNS = test system: U251 CNS
NCI-H460 lung = test system: NCI-H460 lung
HL-60(TB) leukemia = test system: HL-60(TB) leukemia
786-0 renal = test system: 786-0 renal
KM12 colon = test system: KM12 colon
TK-10 renal = test system: TK-10 renal
SK-MEL-2 melanoma = test system: SK-MEL-2 melanoma
MDA-MB-435 = test system: MDA-MB-435
EKVX NSCLC = test system: EKVX NSCLC
M14 melanoma = test system: M14 melanoma

Question: Which results are given for `c1ccc2c(c1)[nH]c1c2cc[n+]2cc3c(cc12)CCCC3`?
Answer: GI50 (OVCAR-5 ovarian): 3.87 µM; TGI (OVCAR-5 ovarian): 17.9 µM and 13.6 µM; GI50 (CCRF-CEM leukemia): 2760 nM; TGI (CCRF-CEM leukemia): 12.7 µM; GI50 (K-562 leukemia): 2760 nM; TGI (K-562 leukemia): 12.5 µM and 10.8 µM; GI50 (HCC-2998 colon): 2670 nM; TGI (HCC-2998 colon): 7.71 µM and 4.66 µM; GI50 (HOP-92 NSCLC): 4.57 µM; TGI (HOP-92 NSCLC): 24.8 µM; GI50 (T-47D breast): 2470 nM; TGI (T-47D breast): 13.6 µM and 22.4 µM; GI50 (UACC-62 melanoma): 2020 nM; TGI (UACC-62 melanoma): 4.97 µM; TGI (DU-145 prostate): 11 µM and 17 µM; TGI (NCI-H226 lung): 7.61 µM and 5.77 µM; GI50 (UACC-257 melanoma): 2090 nM; TGI (UACC-257 melanoma): 6.83 µM and 25.6 µM; GI50 (MOLT-4 leukemia): 3.74 µM; TGI (MOLT-4 leukemia): 13.7 µM and 3.73 µM; TGI (ACHN renal): 16.1 µM and 14.1 µM; GI50 (NCI-H522 lung): 2270 nM; TGI (NCI-H522 lung): 5.48 µM and 6.23 µM; TGI (CAKI-1 renal): 36.2 µM and 32 µM; GI50 (HCT-116 colon): 3.3 µM; TGI (HCT-116 colon): 14.2 µM and 4.66 µM; GI50 (SW-620 colon): 2350 nM; TGI (SW-620 colon): 11.6 µM and 16.2 µM; GI50 (A498 renal): 3.48 µM; TGI (A498 renal): 13.9 µM and > 100 µM; GI50 (UO-31 renal): 14.4 µM; TGI (UO-31 renal): 30.7 µM and 33 µM; GI50 (OVCAR-8 ovarian): 1950 nM; TGI (OVCAR-8 ovarian): 7.57 µM and 11.2 µM; GI50 (OVCAR-4 ovarian): 2140 nM; TGI (OVCAR-4 ovarian): 7.6 µM and 5.73 µM; GI50 (HCT-15 colon): 23.3 µM; TGI (HCT-15 colon): > 100 µM and 23.2 µM; GI50 (HT29 colon): 2400 nM; TGI (HT29 colon): 9.74 µM and 19.6 µM; GI50 (OVCAR-3 ovarian): 2910 nM; TGI (SF-268 CNS): 12.8 µM and 18.3 µM; GI50 (HOP-62 NSCLC): 3.77 µM; TGI (HOP-62 NSCLC): 17 µM and 7.86 µM; GI50 (RPMI-8226 leukemia): 2160 nM; TGI (RPMI-8226 leukemia): 6.28 µM and 3.73 µM; GI50 (SR leukemia): 2510 nM; TGI (SR leukemia): 7.52 µM and 4.19 µM; TGI (SF-295 CNS): 16 µM and 14.5 µM; GI50 (HS 578T breast): 2630 nM; TGI (HS 578T breast): 12.2 µM and > 100 µM; TGI (PC-3 prostate): 10.9 µM and 29 µM; GI50 (SNB-75 CNS): 3.07 µM; TGI (SNB-75 CNS): 12.9 µM and 35.9 µM; GI50 (COLO 205 colon): 1900 nM; TGI (COLO 205 colon): 5.45 µM and 3.56 µM; TGI (SNB-19 CNS): 12 µM and 9.35 µM; TGI (SK-MEL-28 melanoma): 5.26 µM and 4.19 µM; GI50 (SK-MEL-5 melanoma): 1290 nM; TGI (SK-MEL-5 melanoma): 3.22 µM and 5.83 µM; TGI (MDA-N): 3.21 µM; GI50 (SN12C renal): 3.05 µM; TGI (SN12C renal): 12.8 µM and 12.1 µM; GI50 (BT-549 breast): 8.96 µM; TGI (BT-549 breast): 25.5 µM and 8.29 µM; GI50 (IGROV1 ovarian): 5.59 µM; TGI (IGROV1 ovarian): 25 µM and 25.5 µM; GI50 (A549 NSCLC): 4.88 µM; TGI (A549 NSCLC): 24.6 µM and 30.8 µM; GI50 (MDA-MB-231 breast): 2970 nM; TGI (MDA-MB-231 breast): 10 µM and 12.7 µM; TGI (NCI-H23 lung): 6.95 µM; TGI (SK-OV-3 ovarian): 14.2 µM and 14.4 µM; GI50 (SF-539 CNS): 3 µM; TGI (SF-539 CNS): 11.7 µM and 6.7 µM; GI50 (MALME-3M melanoma): 1650 nM; TGI (MALME-3M melanoma): 3.54 µM; GI50 (LOX IMVI melanoma): 2030 nM; TGI (LOX IMVI melanoma): 5.05 µM and 6.75 µM; TGI (MCF7 breast): 10.9 µM and 11 µM; GI50 (RXF 393 renal): 2980 nM; TGI (RXF 393 renal): 12.5 µM; GI50 (NCI/ADR-RES ovarian): 93.8 µM; TGI (NCI/ADR-RES ovarian): > 100 µM; TGI (U251 CNS): 9.77 µM and 12.1 µM; GI50 (NCI-H460 lung): 1660 nM; TGI (NCI-H460 lung): 4.54 µM and 3.22 µM; GI50 (HL-60(TB) leukemia): 1270 nM; TGI (HL-60(TB) leukemia): 5.39 µM; GI50 (786-0 renal): 4 µM; TGI (786-0 renal): 16.4 µM and 12.7 µM; GI50 (KM12 colon): 2300 nM; TGI (KM12 colon): 9.85 µM and 6.53 µM; TGI (TK-10 renal): 25.6 µM; GI50 (SK-MEL-2 melanoma): 1440 nM; TGI (MDA-MB-435): 6.34 µM and 7.54 µM; TGI (EKVX NSCLC): 32.4 µM; GI50 (M14 melanoma): 3.01 µM; TGI (M14 melanoma): 14 µM and 7.29 µM
